Experimental findings from patent US20140213538A1, “LYSOPHOSPHATIDIC ACID RECEPTOR ANTAGONISTS” (InterMune, Inc., priority 2013, published 2014) are described below.

In general, IC50 refers to the concentration that inhibits the measured activity by half.

Common to all, as to format: cell-based
The target of assay [1] is T1, LPA1 (Homo sapiens, UniProt Q92633). In words: LPA1 Migration Assay (Oris). Set-up: host or cells: primary fibroblasts (lung, dermal), HFL-1, 3T3 and CHO cells expressing LPA1R. The settings on record: read-out: Cell Migration EC50. Put shortly: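 Oris exclusion-zone migration of LPA1R-expressing cells (primary lung/dermal fibroblasts, HFL-1, 3T3, CHO), Cell Tracker Green-loaded and serum-starved 12-24 h, toward LPA or serum. Fixed cells in the detection zone were counted by high-content imaging, and cell number vs. concentration was fitted to a 4-parameter logistic.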

Assay [2] concerns the target T1, LPA1. The experiment in a line: Ca Flux LPA1 assay. Set-up: the full-length cDNA for human LPA1 is obtained by PCR of the reverse transcription reaction; expressed in transfected cells.
Assay [3] deals with T2, LPA/S1P GPCR of interest (Homo sapiens, UniProt Q92633).
T2 construct: host or cells: CHO
The experiment in a line: Beta-Arrestin based assay (PathHunter). Put shortly:
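EA Parental CHO cells (DiscoverX) were transfected with FuGENE (Roche) using CMV promoter-driven DNA constructs encoding the LPA/S1P GPCR of interest fused to a ProLink tag. Beta-arrestin recruitment in agonist mode was assessed 24-48 hrs later with PathHunter kits. Tests ran in quadruplicate in white 384 well plates, and end point luminescence was fit to a 4 parameter logistic function.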

T2 sequence (Q92633 whole entry): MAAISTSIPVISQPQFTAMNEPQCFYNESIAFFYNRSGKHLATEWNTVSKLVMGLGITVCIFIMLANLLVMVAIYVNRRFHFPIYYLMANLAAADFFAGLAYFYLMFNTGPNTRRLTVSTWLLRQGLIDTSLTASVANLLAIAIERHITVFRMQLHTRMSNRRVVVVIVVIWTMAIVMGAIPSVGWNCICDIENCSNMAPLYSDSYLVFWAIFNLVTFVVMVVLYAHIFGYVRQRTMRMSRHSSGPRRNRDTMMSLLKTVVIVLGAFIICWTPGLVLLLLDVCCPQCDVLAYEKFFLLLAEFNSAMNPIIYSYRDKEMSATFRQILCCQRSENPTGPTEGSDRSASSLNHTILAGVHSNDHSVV
T1 sequence (Q92633 whole entry): as above

For `Cc1noc(-c2ccc(-c3ccc(Oc4ncccc4C(=O)O)cc3)cc2)c1NC(=O)O[C@H](C)c1ccccc1` [IT199], the EC50 in assay [1] and in assay [3] was less than 50 nM in each case. In assay [2], this compound returned an IC50 of less than 50 nM.
`Cc1noc(-c2ccc(NC(=O)c3coc(C4(C(=O)O)CC4)c3)cc2)c1NC(=O)O[C@H](C)c1ccccc1` [IT224]: the EC50 in assay [1] and in assay [3] was less than 50 nM each time. This compound also returned an IC50 in assay [2] of less than 50 nM.
As for `Cc1noc(-c2ccc(-c3ccc(OC(C)(C)C(=O)O)cc3)cc2)c1NC(=O)O[C@H](C)c1ccccc1` [IT226], the EC50 in assay [1] and in assay [3] was less than 50 nM throughout. The same compound showed an IC50 in assay [2] of less than 50 nM.
Consider `Cc1noc(-c2ccc(-c3ccc(Oc4ccncc4C(=O)O)cc3)cc2)c1NC(=O)O[C@H](C)c1ccccc1` [IT227], for which the EC50 in assay [1] and in assay [3] was less than 50 nM each time. Further, the IC50 in assay [2] was less than 50 nM.
For `Cc1noc(-c2ccc(-c3ccc(OC(F)(F)C(=O)O)cc3)cc2)c1NC(=O)O[C@H](C)c1ccccc1` [IT228], the values for the EC50 in assay [1] and in assay [3] were 50 to 500 nM and less than 50 nM, respectively. The IC50 in assay [2] fell in the range of 50 to 500 nM.
In the case of `Cc1noc(-c2ccc(-c3ccc(Oc4cccnc4C(=O)O)cc3)cc2)c1NC(=O)O[C@H](C)c1ccccc1` [IT229], the EC50 in assay [1] is 50 to 500 nM; in assay [3], less than 50 nM. The same compound had an IC50 in assay [2] of 50 to 500 nM.
For `Cc1noc(-c2ccc(-c3cc(F)c(C4(C(=O)O)CC4)c(F)c3)cc2)c1NC(=O)O[C@H](C)c1ccccc1` [IT234], the EC50 in assay [1] and in assay [3] was less than 50 nM in each case. For the same compound, the IC50 in assay [2] is less than 50 nM.
In the case of `Cc1noc(-c2ccc(-c3ccc(C4(C(=O)O)CCC4)cc3)cc2)c1NC(=O)O[C@H](C)c1ccccc1` [IT235], the EC50 in assay [1] and in assay [3] was less than 50 nM each time. The same compound registered an IC50 in assay [2] of 50 to 500 nM.
With `C[C@@H](OC(=O)Nc1c(-c2ccc(-c3ccc(C4(C(=O)O)CC4)s3)cc2)nnn1C)c1ccccc1` [IT236], the EC50 in assay [1] is 50 to 500 nM; in assay [3], less than 50 nM. Moreover, the IC50 in assay [2] is less than 50 nM.
For the compound `C[C@@H](OC(=O)Nc1c(-c2cc3sc(-c4ccc(C5(C(=O)O)CC5)cc4F)cc3s2)cnn1C)c1ccccc1` [IT245], the EC50 is 50 to 500 nM in assay [1] and less than 50 nM in assay [3]. Moreover, in assay [2], the IC50 was in the range of 50 to 500 nM.
With `Cc1onc(-c2cc(F)c(-c3cc4sc(C5(C(=O)O)CC5)cc4s3)cc2F)c1NC(=O)O[C@H](C)c1ccccc1` [IT255], the EC50 is 50 to 500 nM in assay [1] and less than 50 nM in assay [3]. In assay [2], this compound showed an IC50 of 50 to 500 nM.
In the case of `Cc1noc(-c2ccc(-c3cc(F)c(Oc4ncccc4C(=O)O)c(F)c3)cc2)c1NC(=O)O[C@H](C)c1ccccc1` [IT258], the EC50 in assay [1] and in assay [3] was less than 50 nM each time. In assay [2], this compound gave an IC50 of less than 50 nM.
As to `C[C@@H](OC(=O)Nc1c(-c2cc3sc(-c4cc(F)c(C5(C(=O)O)CC5)c(F)c4)cc3s2)cnn1C)c1ccccc1` [IT261], the results for the EC50 in assay [1] and in assay [3] were 50 to 500 nM and less than 50 nM, respectively. The same compound came in with an IC50 in assay [2] of more than 500 nM.
In the same order, the values of `C[C@@H](OC(=O)Nc1c(-c2cc3sc(-c4cc(F)c(C5(C(=O)O)CC5)c(F)c4)cc3s2)nnn1C)c1ccccc1` [IT262] are 50 to 500 nM, less than 50 nM and 50 to 500 nM.
For `C[C@@H](OC(=O)Nc1c(-c2cc(Cl)c(-c3cc4sc(C5(C(=O)O)CC5)cc4s3)cc2F)cnn1C)c1ccccc1` [IT282], the EC50 in assay [1] and in assay [3] was less than 50 nM throughout. Also, the IC50 in assay [2] lay in the range of 50 to 500 nM.
In the case of `Cc1noc(-c2ccc(-c3cc(F)c(Oc4ccncc4C(=O)O)c(F)c3)cc2)c1NC(=O)O[C@H](C)c1ccccc1` [IT300], the EC50 in assay [1] and in assay [3] was less than 50 nM each time. This compound also displayed an IC50 in assay [2] of less than 50 nM.
On to `C[C@@H](OC(=O)Nc1c(C#Cc2ccc(Oc3ccccc3C(=O)O)cc2)cnn1C)c1ccccc1` [IT301], for which the EC50 is 50 to 500 nM in assay [1] and less than 50 nM in assay [3]. Further, the IC50 in assay [2] was less than 50 nM.
For the compound `C[C@@H](OC(=O)Nc1c(C#Cc2cc(F)c(Oc3ncccc3C(=O)O)c(F)c2)cnn1C)c1ccccc1` [IT303], the EC50 in assay [1] and in assay [3] was 50 to 500 nM each time. The compound also came in with an IC50 in assay [2] of less than 50 nM.
Regarding `Cc1noc(-c2ccc(-c3cc(F)c(OC4(C(=O)O)CC4)c(F)c3)cc2)c1NC(=O)O[C@H](C)c1ccccc1` [IT304], the figures for the EC50 in assay [1] and in assay [3] were 50 to 500 nM and less than 50 nM, respectively. In assay [2], this compound returned an IC50 of less than 50 nM.
As for `Cc1noc(-c2ccc(-c3cc(F)c(Oc4nccnc4C(=O)O)c(F)c3)cc2)c1NC(=O)O[C@H](C)c1ccccc1` [IT305], the EC50 in assay [1] and in assay [3] was less than 50 nM each time. This compound registered an IC50 in assay [2] of less than 50 nM.
Turning to `C[C@@H](OC(=O)Nc1c(-c2ccc(-c3cc(F)c(Oc4ncccc4C(=O)O)c(F)c3)cc2)nnn1C)c1ccccc1` [IT306], the EC50 in assay [1] and in assay [3] was less than 50 nM in each case. The IC50 in assay [2] was less than 50 nM.
On to `Cc1nnn(-c2ccc(-c3cc(F)c(Oc4ncccc4C(=O)O)c(F)c3)cc2)c1NC(=O)O[C@H](C)c1ccccc1` [IT307], for which the EC50 in assay [1] is 50 to 500 nM; in assay [3] it was less than 50 nM. This compound showed an IC50 in assay [2] of less than 50 nM.
For `C[C@@H](OC(=O)Nc1c(-c2ccc(-c3cc(F)c(Oc4ncccc4C(=O)O)c(F)c3)cc2)cnn1C)c1ccccc1` [IT308], the EC50 in assay [1] and in assay [3] was less than 50 nM in each case. The same compound returned an IC50 in assay [2] of 50 to 500 nM.
Turning to `C[C@@H](OC(=O)Nc1c(-c2ccc(-c3ccc(Oc4ccccc4C(=O)O)cc3)cc2)nnn1C)c1ccccc1` [IT309], the EC50 in assay [1] and in assay [3] was less than 50 nM in each case. This compound also displayed an IC50 in assay [2] of less than 50 nM.
As for `Cc1noc(-c2cc(F)c(-c3ccc(Oc4ccccc4C(=O)O)cc3)cc2F)c1NC(=O)O[C@H](C)c1ccccc1` [IT315], the EC50 in assay [1] and in assay [3] was less than 50 nM in each case. In assay [2], this compound registered an IC50 of less than 50 nM.
On to `Cc1noc(-c2ccc(-c3cc(F)c(Oc4ccccc4C(=O)O)c(F)c3)cc2)c1NC(=O)O[C@H](C)c1ccccc1` [IT316], for which the EC50 in assay [1] and in assay [3] was less than 50 nM throughout. Further, the IC50 in assay [2] lay within 50 to 500 nM.
As to `Cc1cc(C2(C(=O)O)CC2)c(F)cc1-c1cc2sc(-c3nnn(C)c3NC(=O)O[C@H](C)c3ccccc3)cc2s1` [IT341], the results for the EC50 in assay [1] and in assay [3] were 50 to 500 nM and less than 50 nM, respectively. In addition, in assay [2], the IC50 lay in the range of 50 to 500 nM.
Consider `Cc1noc(-c2ccc(-c3ccc(Oc4ccccc4C(=O)O)nc3)cc2)c1NC(=O)O[C@H](C)c1ccccc1` [IT345], for which the EC50 in assay [1] is 50 to 500 nM; in assay [3] it was less than 50 nM. In assay [2], this compound had an IC50 of less than 50 nM.
For the compound `Cc1noc(-c2ccc(-c3ccc(Oc4c(F)cccc4C(=O)O)c(F)c3)cc2)c1NC(=O)O[C@H](C)c1ccccc1` [IT374], the figures for the EC50 in assay [1] and in assay [3] were 50 to 500 nM and less than 50 nM, respectively. The IC50 in assay [2] was 50 to 500 nM.
With `Cc1noc(-c2ccc(-c3ccc(Oc4c(F)cccc4C(=O)O)cc3)cc2)c1NC(=O)O[C@H](C)c1ccccc1` [IT375], the EC50 in assay [1] is 50 to 500 nM; in assay [3], less than 50 nM. Further, the IC50 in assay [2] was 50 to 500 nM.
With `Cc1nnn(-c2ccc(-c3cc(F)c(Oc4ccccc4C(=O)O)c(F)c3)cc2)c1NC(=O)O[C@H](C)c1ccccc1` [IT408], the EC50 in assay [1] and in assay [3] was less than 50 nM each time. This compound also gave an IC50 in assay [2] of less than 50 nM.
In the case of `Cc1noc(-c2ccc(-c3ccc(Oc4ccncc4C(=O)O)c(F)c3)cc2)c1NC(=O)O[C@H](C)c1ccccc1` [IT423], the EC50 is 50 to 500 nM in assay [1] and less than 50 nM in assay [3]. This compound came in with an IC50 in assay [2] of less than 50 nM.
For the compound `Cc1noc(-c2ccc(-c3ccc(Oc4cccnc4C(=O)O)c(F)c3)cc2)c1NC(=O)O[C@H](C)c1ccccc1` [IT424], the EC50 in assay [1] and in assay [3] was less than 50 nM in each case. The compound further came in with an IC50 in assay [2] of less than 50 nM.
For the compound `C[C@@H](OC(=O)Nc1c(-c2ccc(-c3cc(F)c(Oc4ccccc4C(=O)O)c(F)c3)cc2)cnn1C)c1ccccc1` [IT425], the EC50 in assay [1] and in assay [3] was less than 50 nM each time. The compound also displayed an IC50 in assay [2] of less than 50 nM.
For the compound `Cc1noc(-c2ccc(-c3cc(F)c(Oc4cccnc4C(=O)O)c(F)c3)cc2)c1NC(=O)O[C@H](C)c1ccccc1` [IT435], the EC50 in assay [1] and in assay [3] was less than 50 nM throughout. This compound also gave an IC50 in assay [2] of less than 50 nM.
Take `C[C@@H](OC(=O)Nc1c(-c2ccc(-c3cc(F)c(Oc4cccnc4C(=O)O)c(F)c3)cc2)cnn1C)c1ccccc1` [IT436]: the EC50 in assay [1] is 50 to 500 nM; in assay [3], less than 50 nM. The compound further returned an IC50 in assay [2] of less than 50 nM.
Consider `C[C@@H](OC(=O)Nc1c(-c2ccc(-c3cc(F)c(Oc4ccncc4C(=O)O)c(F)c3)cc2)cnn1C)c1ccccc1` [IT438], for which the EC50 was 50 to 500 nM in assay [1] and less than 50 nM in assay [3]. The IC50 in assay [2] is 50 to 500 nM.
For `C[C@@H](OC(=O)Nc1c(-c2ccc(-c3ccc(Oc4ccccc4C(=O)O)c(F)c3)cc2)cnn1C)c1ccccc1` [IT446], the EC50 in assay [1] and in assay [3] was less than 50 nM throughout. In assay [2], this compound had an IC50 of less than 50 nM.
For the compound `C[C@@H](OC(=O)Nc1c(-c2ccc(-c3ccc(Oc4ccccc4C(=O)O)c(F)c3)cc2)nnn1C)c1ccccc1` [IT447], the EC50 in assay [1] and in assay [3] was less than 50 nM in each case. In assay [2], this compound had an IC50 of less than 50 nM.
